Measured values as given in ChEMBL document CHEMBL1201862, “PubChem BioAssay data set” (2004).
Active and inactive are the calls of the source.

Tests used:
[1] = blockers of HIV-1 ZM109 envelope-driven cell-cell fusion – HeLa effector, CEM target cells, luciferase, cherry-pick, dose response (AID 652058); format: functional, cell-based;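 also: luciferase signal from HIV-1 Env mediated cell-cell fusion of effector and target cells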
[2] = blockers of HIV-1 envelope-mediated cell-cell fusion – cherry-pick, dose response (AID 652057); format: functional, cell-based
[3] = viability loss in CEM21 cells – cell-based, CellTiter-Glo luminescence, cherry-picked, cytotoxicity control for viral fusion inhibitor project, dose response (AID 652042); format: functional;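 also: potency for signal decrease meaning cytotoxicity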
[4] = HIV-1 AD8 envelope cell-cell fusion blockers – cherry-pick, dose response (AID 652062); format: functional, cell-based;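 also: luciferase signal from cell-cell fusion driven by HIV-1 clade B AD8 Env; potency is for inhibitors of fusion seen as a drop in luminescence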
[5] = off-target signal loss in HeLa-CEM21 co-culture – HeLa F-luc CTL cells, cherry-picked, counter-screen for HIV-1 Env fusion inhibitor project, dose response (AID 652040); format: functional, cell-based;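 also: potency for signal decrease marking cytotoxic or nonspecific inhibition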
[6] = intracellular Trypanosoma cruzi inhibitors in host cells – cell-based, plate reader, cherry-pick samples, set 3, dose response (AID 651818); format: functional;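 also: compounds incubated with infected cells for about four days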
[7] = mouse fibroblast viability loss – cell-based, cherry-pick samples, set 2, cytotoxicity control for T. cruzi growth inhibitor project, dose response (AID 651817); format: functional; details: NIH3T3
[8] = cytotoxicity in HEK293 background cells – cell-based, dry powder, set 2, counter-screen for EBV LMP1 inhibitor project, dose response (AID 624374); format: functional
[9] = molecular target: Metabotropic glutamate receptor 3 (Rattus norvegicus, UniProt P31422); assay: inhibitors of rat mGlu3 Galpha15 signaling – TREx293 cells, calcium flux, mGlu3 NAM project, dose response (AID 651840); format: functional
[10] = A Cell-Based Confirmatory Screen for Compounds that Inhibit VEEV, TC-83 (8).; format: functional
[11] = Late stage assay provider results from the probe development effort to identify inhibitors of the Plasmodium falciparum M17 Leucine Aminopeptidase (M17LAP): radiolabel-based cell-based dose response assay to identify compounds that inhibit P. falciparum growth in RBCs Set 2.; format: functional

Metabotropic glutamate receptor 3, sequence (P31422 whole entry): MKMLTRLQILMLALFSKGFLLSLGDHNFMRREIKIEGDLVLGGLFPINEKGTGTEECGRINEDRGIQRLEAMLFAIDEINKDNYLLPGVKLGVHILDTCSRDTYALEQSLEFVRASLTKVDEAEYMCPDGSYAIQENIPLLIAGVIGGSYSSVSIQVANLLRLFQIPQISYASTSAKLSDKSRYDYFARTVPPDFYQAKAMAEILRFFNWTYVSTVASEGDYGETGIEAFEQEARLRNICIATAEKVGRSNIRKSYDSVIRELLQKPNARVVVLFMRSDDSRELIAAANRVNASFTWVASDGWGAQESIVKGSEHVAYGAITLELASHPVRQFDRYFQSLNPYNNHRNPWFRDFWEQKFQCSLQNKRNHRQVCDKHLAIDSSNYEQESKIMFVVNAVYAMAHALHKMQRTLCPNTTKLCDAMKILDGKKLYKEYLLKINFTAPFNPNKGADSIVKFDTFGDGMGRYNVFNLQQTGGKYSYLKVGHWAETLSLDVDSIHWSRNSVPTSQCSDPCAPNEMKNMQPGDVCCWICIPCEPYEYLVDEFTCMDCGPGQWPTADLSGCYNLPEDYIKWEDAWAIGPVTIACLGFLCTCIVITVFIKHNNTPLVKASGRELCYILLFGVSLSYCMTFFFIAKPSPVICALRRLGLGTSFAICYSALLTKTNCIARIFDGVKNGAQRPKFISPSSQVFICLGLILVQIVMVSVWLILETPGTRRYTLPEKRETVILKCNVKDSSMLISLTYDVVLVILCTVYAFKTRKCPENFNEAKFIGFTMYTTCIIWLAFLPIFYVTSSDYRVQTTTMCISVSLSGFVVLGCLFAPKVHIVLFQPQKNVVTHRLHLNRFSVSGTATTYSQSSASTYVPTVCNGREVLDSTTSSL

**Q.** For `Cc1cc(C)nc(Nc2nc(C(N)CCc3ccccc3)cs2)n1` (stereo unspecified), which AC50 [1] is on record?
**A.** 3.65 µM (active)

**Q.** And the AC50 [2]?
**A.** 4.75 µM (active)

**Q.** What about the AC50 [3] of the same compound?
**A.** 40.1 µM (active)

**Q.** What about the AC50 [4] of the same compound?
**A.** 18.2 µM (active)

**Q.** What about the AC50 [5] of the same compound?
**A.** 6.75 µM (active)

**Q.** With `C[C@@H]1CN([C@@H](C)CO)C(=O)c2cccc(NC(=O)c3ccncc3)c2O[C@H]1CN(C)Cc1ccc(Cl)c(Cl)c1` as the compound, how does the AC50 [6] read?
**A.** 0.08 µM (active)

**Q.** And the AC50 [7]?
**A.** 16.6 µM (active)

**Q.** For `CS(=O)(=O)Nc1ccc2c(c1)[C@@H]1C[C@H](CC(=O)NCC3CC3)O[C@H](CO)[C@@H]1O2`, which AbsAC35 [8] is on record?
**A.** 85.99 µM

**Q.** For `COc1ccc(C#Cc2ccc(C(=O)N3CCC[C@@H](O)C3)cc2)cc1`, which IC50 [9] is on record?
**A.** 0.597 µM

**Q.** Which IC50 [10] does the source give for `O=c1nc(Nc2ccc(OCc3ccccc3)cc2)sc2ncc(F)cc12` here?
**A.** 1.42 µM (active)

**Q.** For `O=C(Cc1ccc2ccccc2c1)NO`, which IC50 [11] is on record?
**A.** 5.8 µM (active)
